{
  "source": "the kinase profiling compilation of Christmann-Franck et al. (2016)",
  "assay_in_all_cases": "KINOMEscan competition binding",
  "details_in_all_cases": "compound 10.0 µM",
  "key": {"KDR (human)": {"target": "KDR (human) (UniProt P35968)"}, "AURKC (human)": {"target": "AURKC (human) (UniProt Q9UQB9)"}, "CHEK2 (human)": {"target": "CHEK2 (human) (UniProt O96017)"}, "EIF2AK1 (human)": {"target": "EIF2AK1 (human) (UniProt Q9BQI3)", "sequence (Q9BQI3 whole entry, looked up)": "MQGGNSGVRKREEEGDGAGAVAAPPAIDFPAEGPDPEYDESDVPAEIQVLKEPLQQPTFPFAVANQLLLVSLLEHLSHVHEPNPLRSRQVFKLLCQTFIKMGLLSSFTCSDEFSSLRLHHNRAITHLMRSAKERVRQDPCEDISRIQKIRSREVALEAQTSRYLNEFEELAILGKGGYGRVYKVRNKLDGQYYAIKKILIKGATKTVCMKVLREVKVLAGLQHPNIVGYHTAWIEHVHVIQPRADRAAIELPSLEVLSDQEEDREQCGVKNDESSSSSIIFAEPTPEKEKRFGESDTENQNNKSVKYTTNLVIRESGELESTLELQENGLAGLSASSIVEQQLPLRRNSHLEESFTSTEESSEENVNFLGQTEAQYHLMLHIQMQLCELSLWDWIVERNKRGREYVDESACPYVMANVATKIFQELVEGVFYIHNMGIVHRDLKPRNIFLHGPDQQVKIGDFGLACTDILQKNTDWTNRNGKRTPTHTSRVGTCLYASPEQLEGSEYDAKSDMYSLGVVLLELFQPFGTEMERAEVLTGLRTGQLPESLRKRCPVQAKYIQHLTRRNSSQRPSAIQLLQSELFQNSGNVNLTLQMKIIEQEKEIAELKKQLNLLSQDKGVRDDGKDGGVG"}, "BRSK1 (human)": {"target": "BRSK1 (human) (UniProt Q8TDC3)"}, "MAPK14 (human)": {"target": "MAPK14 (human) (UniProt Q16539)"}, "TNK1 (human)": {"target": "TNK1 (human) (UniProt Q13470)"}, "RIOK2 (human)": {"target": "RIOK2 (human) (UniProt Q9BVS4)"}, "MAP3K6 (human)": {"target": "MAP3K6 (human) (UniProt O95382)"}, "PLK4 (human)": {"target": "PLK4 (human) (UniProt O00444)"}, "GRK7 (human)": {"target": "GRK7 (human) (UniProt Q8WTQ7)"}, "RIOK1 (human)": {"target": "RIOK1 (human) (UniProt Q9BRS2)"}, "STK32B (human)": {"target": "STK32B (human) (UniProt Q9NY57)"}, "MAPK15 (human)": {"target": "MAPK15 (human) (UniProt Q8TD08)"}, "MAP2K2 (human)": {"target": "MAP2K2 (human) (UniProt P36507)", "sequence (P36507 whole entry, looked up)": "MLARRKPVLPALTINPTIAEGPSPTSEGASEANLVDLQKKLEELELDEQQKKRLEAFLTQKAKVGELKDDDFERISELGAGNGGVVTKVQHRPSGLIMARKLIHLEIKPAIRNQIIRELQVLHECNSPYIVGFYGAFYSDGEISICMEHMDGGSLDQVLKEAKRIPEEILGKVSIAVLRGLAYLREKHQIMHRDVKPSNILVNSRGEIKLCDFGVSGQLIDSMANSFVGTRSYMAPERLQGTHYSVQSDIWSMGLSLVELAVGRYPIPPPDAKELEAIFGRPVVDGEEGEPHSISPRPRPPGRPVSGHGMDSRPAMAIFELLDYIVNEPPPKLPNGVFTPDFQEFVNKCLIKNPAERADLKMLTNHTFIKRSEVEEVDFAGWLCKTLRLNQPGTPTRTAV"}, "CLK3 (human)": {"target": "CLK3 (human) (UniProt P49761)"}, "MYLK2 (human)": {"target": "MYLK2 (human) (UniProt Q9H1R3)"}, "RPS6KA2 KD2 (human)": {"target": "RPS6KA2 KD2 (human) (UniProt Q15349)"}, "SGK110 (human)": {"target": "SGK110 (human) (UniProt P0C264)"}, "[1]": {"target": "JAK2 JH1 catalytic (human) (UniProt O60674)"}, "ERBB3 (human)": {"target": "ERBB3 (human) (UniProt P21860)", "sequence (P21860 whole entry, looked up)": "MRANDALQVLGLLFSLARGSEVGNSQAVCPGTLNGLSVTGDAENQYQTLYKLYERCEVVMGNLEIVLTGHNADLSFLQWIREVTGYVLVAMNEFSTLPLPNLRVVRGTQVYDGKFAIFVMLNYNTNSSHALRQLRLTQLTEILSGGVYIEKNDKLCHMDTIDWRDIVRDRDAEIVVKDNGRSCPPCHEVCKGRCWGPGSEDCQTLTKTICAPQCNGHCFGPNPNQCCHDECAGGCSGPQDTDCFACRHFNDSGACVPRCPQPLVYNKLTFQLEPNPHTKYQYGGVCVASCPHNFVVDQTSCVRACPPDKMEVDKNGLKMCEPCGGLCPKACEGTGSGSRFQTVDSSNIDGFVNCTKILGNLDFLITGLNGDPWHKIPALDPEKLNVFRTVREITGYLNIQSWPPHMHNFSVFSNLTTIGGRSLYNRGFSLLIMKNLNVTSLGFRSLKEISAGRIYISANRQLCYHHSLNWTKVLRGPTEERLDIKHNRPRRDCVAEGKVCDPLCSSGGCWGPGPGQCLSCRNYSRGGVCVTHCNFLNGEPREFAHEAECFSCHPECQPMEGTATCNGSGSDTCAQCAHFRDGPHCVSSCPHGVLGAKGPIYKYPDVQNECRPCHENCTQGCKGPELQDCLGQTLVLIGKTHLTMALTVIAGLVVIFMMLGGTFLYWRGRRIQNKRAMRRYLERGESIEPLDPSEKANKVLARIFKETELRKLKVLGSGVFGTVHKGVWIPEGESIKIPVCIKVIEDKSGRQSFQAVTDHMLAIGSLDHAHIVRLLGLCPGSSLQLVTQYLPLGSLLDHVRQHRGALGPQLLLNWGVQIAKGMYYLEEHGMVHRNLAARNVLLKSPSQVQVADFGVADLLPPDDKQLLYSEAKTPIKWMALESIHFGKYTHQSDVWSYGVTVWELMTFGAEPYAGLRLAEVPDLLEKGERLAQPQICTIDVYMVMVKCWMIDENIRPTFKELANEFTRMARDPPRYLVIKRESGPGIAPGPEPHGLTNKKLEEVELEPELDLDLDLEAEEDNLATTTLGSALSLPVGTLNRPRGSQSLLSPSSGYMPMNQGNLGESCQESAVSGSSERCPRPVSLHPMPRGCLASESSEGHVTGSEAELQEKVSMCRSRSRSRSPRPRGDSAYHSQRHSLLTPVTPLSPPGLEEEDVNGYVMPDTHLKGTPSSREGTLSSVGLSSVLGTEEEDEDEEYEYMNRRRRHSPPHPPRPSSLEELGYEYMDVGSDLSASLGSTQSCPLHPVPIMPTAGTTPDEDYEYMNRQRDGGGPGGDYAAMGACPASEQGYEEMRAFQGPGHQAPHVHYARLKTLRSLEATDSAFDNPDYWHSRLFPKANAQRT"}, "NTRK3 (human)": {"target": "NTRK3 (human) (UniProt Q16288)"}, "[2]": {"target": "JAK1 JH2 pseudokinase (human) (UniProt P23458)", "sequence (P23458 whole entry, looked up)": "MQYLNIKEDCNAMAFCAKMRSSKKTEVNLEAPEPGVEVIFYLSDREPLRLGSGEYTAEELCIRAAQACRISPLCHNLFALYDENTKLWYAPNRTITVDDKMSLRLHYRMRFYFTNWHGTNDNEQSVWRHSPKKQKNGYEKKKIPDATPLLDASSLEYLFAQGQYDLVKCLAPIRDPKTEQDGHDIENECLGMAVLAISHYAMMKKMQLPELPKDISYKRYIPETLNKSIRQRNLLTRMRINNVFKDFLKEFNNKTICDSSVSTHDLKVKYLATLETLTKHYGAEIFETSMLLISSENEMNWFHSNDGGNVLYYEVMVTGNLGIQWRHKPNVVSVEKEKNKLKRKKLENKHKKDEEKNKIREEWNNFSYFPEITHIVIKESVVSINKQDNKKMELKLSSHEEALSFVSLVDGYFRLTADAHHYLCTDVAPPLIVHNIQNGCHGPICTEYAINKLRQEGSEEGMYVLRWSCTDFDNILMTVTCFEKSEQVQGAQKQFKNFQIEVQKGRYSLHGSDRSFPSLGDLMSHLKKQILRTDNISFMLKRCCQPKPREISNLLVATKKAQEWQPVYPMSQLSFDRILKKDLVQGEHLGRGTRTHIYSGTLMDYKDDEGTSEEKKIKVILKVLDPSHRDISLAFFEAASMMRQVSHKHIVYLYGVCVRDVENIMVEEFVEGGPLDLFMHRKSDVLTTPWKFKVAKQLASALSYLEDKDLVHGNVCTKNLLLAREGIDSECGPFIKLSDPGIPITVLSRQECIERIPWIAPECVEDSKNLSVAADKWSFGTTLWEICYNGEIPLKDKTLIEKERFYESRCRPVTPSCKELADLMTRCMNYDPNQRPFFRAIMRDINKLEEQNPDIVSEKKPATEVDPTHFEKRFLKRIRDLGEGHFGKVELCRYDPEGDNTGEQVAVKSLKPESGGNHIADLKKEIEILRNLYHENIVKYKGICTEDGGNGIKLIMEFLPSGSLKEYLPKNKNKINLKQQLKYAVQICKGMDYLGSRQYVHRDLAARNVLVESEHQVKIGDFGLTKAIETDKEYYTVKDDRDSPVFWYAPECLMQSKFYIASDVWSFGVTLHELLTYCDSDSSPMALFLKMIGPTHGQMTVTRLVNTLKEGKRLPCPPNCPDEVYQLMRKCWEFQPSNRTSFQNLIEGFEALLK"}, "CDK5 (human)": {"target": "CDK5 (human) (UniProt Q00535)", "sequence (Q00535 whole entry, looked up)": "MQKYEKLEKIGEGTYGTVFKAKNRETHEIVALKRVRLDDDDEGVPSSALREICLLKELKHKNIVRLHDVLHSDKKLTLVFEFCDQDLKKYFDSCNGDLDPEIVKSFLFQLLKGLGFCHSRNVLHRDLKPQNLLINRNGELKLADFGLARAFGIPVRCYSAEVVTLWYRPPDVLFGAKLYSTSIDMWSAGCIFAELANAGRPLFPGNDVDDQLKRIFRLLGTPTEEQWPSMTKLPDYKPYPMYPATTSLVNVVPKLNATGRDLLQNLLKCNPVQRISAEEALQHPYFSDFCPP"}, "HUNK (human)": {"target": "HUNK (human) (UniProt P57058)"}, "[3]": {"tested_on": "EGFR (human), P00533 [A750P; 747-749 del]"}, "CHEK1 (human)": {"target": "CHEK1 (human) (UniProt O14757)"}, "KIT (human)": {"target": "KIT (human) (UniProt P10721)"}, "MAP3K10 (human)": {"target": "MAP3K10 (human) (UniProt Q02779)"}, "DDR1 (human)": {"target": "DDR1 (human) (UniProt Q08345)"}, "CAMK2B (human)": {"target": "CAMK2B (human) (UniProt Q13554)"}, "CAMKK2 (human)": {"target": "CAMKK2 (human) (UniProt Q96RR4)"}, "EPHB2 (human)": {"target": "EPHB2 (human) (UniProt P29323)"}, "SLK (human)": {"target": "SLK (human) (UniProt Q9H2G2)", "sequence (Q9H2G2 whole entry, looked up)": "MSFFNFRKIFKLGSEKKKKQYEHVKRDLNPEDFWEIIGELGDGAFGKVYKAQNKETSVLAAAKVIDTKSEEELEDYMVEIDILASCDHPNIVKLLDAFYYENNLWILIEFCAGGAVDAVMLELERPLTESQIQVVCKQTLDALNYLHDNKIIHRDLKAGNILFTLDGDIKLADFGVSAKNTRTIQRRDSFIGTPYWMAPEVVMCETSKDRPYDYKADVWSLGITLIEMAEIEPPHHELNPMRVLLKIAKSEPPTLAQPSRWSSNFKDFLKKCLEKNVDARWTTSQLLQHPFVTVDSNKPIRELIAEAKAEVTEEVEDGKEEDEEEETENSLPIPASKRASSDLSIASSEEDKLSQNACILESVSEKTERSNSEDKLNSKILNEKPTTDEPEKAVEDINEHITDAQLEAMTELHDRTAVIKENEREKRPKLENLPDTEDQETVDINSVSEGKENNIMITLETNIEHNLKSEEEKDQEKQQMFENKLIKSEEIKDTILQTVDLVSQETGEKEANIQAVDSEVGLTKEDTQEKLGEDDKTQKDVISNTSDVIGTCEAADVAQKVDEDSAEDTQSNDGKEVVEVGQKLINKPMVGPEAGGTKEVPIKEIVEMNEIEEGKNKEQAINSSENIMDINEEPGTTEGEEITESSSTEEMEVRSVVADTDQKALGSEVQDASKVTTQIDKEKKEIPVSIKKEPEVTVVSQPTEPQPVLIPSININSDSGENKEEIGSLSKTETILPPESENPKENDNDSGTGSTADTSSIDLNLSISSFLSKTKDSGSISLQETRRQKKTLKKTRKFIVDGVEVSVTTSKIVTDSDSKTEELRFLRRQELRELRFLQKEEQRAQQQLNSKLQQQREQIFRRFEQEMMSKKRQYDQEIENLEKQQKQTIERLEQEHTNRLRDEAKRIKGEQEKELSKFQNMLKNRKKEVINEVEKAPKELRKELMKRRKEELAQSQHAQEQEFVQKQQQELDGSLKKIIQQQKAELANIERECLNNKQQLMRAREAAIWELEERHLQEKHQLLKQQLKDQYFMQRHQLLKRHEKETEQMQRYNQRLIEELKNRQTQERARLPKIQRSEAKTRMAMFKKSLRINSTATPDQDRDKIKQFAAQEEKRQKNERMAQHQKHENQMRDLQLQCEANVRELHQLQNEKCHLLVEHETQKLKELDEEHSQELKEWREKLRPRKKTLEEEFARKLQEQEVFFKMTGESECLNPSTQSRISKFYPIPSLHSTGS"}, "SYK (human)": {"target": "SYK (human) (UniProt P43405)"}, "MTOR (human)": {"target": "MTOR (human) (UniProt P42345)"}, "CDK17 (human)": {"target": "CDK17 (human) (UniProt Q00537)"}, "NEK3 (human)": {"target": "NEK3 (human) (UniProt P51956)"}, "NEK5 (human)": {"target": "NEK5 (human) (UniProt Q6P3R8)"}, "INSR (human)": {"target": "INSR (human) (UniProt P06213)"}, "PTK6 (human)": {"target": "PTK6 (human) (UniProt Q13882)"}},
  "data": [
    {"smiles": "COC(=O)Nc1ccc(-c2nc(N3CCOCC3)c3cnn(C4CCN(C(=O)OC)CC4)c3n2)cc1", "values": [
      {"measurement": "kinase still bound, per cent of control", "setting": "KDR (human)", "value": 100, "unit": "%"},
      {"measurement": "kinase still bound, per cent of control", "setting": "AURKC (human)", "value": 100, "unit": "%"},
      {"measurement": "kinase still bound, per cent of control", "setting": "CHEK2 (human)", "value": 100, "unit": "%"},
      {"measurement": "kinase still bound, per cent of control", "setting": "EIF2AK1 (human)", "value": 56, "unit": "%"},
      {"measurement": "kinase still bound, per cent of control", "setting": "BRSK1 (human)", "value": 95, "unit": "%"},
      {"measurement": "kinase still bound, per cent of control", "setting": "MAPK14 (human)", "value": 80, "unit": "%"},
      {"measurement": "kinase still bound, per cent of control", "setting": "TNK1 (human)", "value": 100, "unit": "%"},
      {"measurement": "kinase still bound, per cent of control", "setting": "RIOK2 (human)", "value": 79, "unit": "%"},
      {"measurement": "kinase still bound, per cent of control", "setting": "MAP3K6 (human)", "value": 95, "unit": "%"},
      {"measurement": "kinase still bound, per cent of control", "setting": "PLK4 (human)", "value": 100, "unit": "%"},
      {"measurement": "kinase still bound, per cent of control", "setting": "GRK7 (human)", "value": 100, "unit": "%"},
      {"measurement": "kinase still bound, per cent of control", "setting": "RIOK1 (human)", "value": 92, "unit": "%"},
      {"measurement": "kinase still bound, per cent of control", "setting": "STK32B (human)", "value": 100, "unit": "%"},
      {"measurement": "kinase still bound, per cent of control", "setting": "MAPK15 (human)", "value": 100, "unit": "%"},
      {"measurement": "kinase still bound, per cent of control", "setting": "MAP2K2 (human)", "value": 100, "unit": "%"},
      {"measurement": "kinase still bound, per cent of control", "setting": "CLK3 (human)", "value": 100, "unit": "%"},
      {"measurement": "kinase still bound, per cent of control", "setting": "MYLK2 (human)", "value": 100, "unit": "%"},
      {"measurement": "kinase still bound, per cent of control", "setting": "RPS6KA2 KD2 (human)", "value": 100, "unit": "%"},
      {"measurement": "kinase still bound, per cent of control", "setting": "SGK110 (human)", "value": 92, "unit": "%"},
      {"measurement": "kinase still bound, per cent of control", "setting": "[1]", "value": 73, "unit": "%"},
      {"measurement": "kinase still bound, per cent of control", "setting": "ERBB3 (human)", "value": 100, "unit": "%"},
      {"measurement": "kinase still bound, per cent of control", "setting": "NTRK3 (human)", "value": 100, "unit": "%"},
      {"measurement": "kinase still bound, per cent of control", "setting": "[2]", "value": 74, "unit": "%"},
      {"measurement": "per cent of control", "setting": "CDK5 (human)", "value": 100, "unit": "%"},
      {"measurement": "kinase still bound, per cent of control", "setting": "HUNK (human)", "value": 95, "unit": "%"},
      {"measurement": "kinase still bound, per cent of control", "setting": "[3]", "value": 88, "unit": "%"},
      {"measurement": "kinase still bound, per cent of control", "setting": "CHEK1 (human)", "value": 96, "unit": "%"},
      {"measurement": "kinase still bound, per cent of control", "setting": "KIT (human)", "value": 100, "unit": "%"},
      {"measurement": "kinase still bound, per cent of control", "setting": "MAP3K10 (human)", "value": 100, "unit": "%"},
      {"measurement": "kinase still bound, per cent of control", "setting": "DDR1 (human)", "value": 100, "unit": "%"},
      {"measurement": "kinase still bound, per cent of control", "setting": "CAMK2B (human)", "value": 100, "unit": "%"},
      {"measurement": "kinase still bound, per cent of control", "setting": "CAMKK2 (human)", "value": 84, "unit": "%"},
      {"measurement": "kinase still bound, per cent of control", "setting": "EPHB2 (human)", "value": 100, "unit": "%"},
      {"measurement": "kinase still bound, per cent of control", "setting": "SLK (human)", "value": 70, "unit": "%"},
      {"measurement": "kinase still bound, per cent of control", "setting": "SYK (human)", "value": 83, "unit": "%"},
      {"measurement": "kinase still bound, per cent of control", "setting": "MTOR (human)", "value": 0, "unit": "%"},
      {"measurement": "per cent of control", "setting": "CDK17 (human)", "value": 100, "unit": "%"},
      {"measurement": "kinase still bound, per cent of control", "setting": "NEK3 (human)", "value": 100, "unit": "%"},
      {"measurement": "kinase still bound, per cent of control", "setting": "NEK5 (human)", "value": 100, "unit": "%"},
      {"measurement": "kinase still bound, per cent of control", "setting": "INSR (human)", "value": 72, "unit": "%"},
      {"measurement": "kinase still bound, per cent of control", "setting": "PTK6 (human)", "value": 88, "unit": "%"}
    ]}
  ]
}
